Patent US20240345105A1, “Compositions and Methods for Detecting Analytes in Oral Fluids” (George Mason Research Foundation, Inc., priority 2023, published 2024)

Experiment: LC/MRM-MS quantification of THC in oral fluid with heavy isotope standard curve
Assay type: in vivo
Conditions: oral fluid of cannabis smoking volunteer, ratio to heavy THC isotope
Text: Samples containing drugs of interest are processed and run on the Thermo Quantum Triple Quad MS (LC/MRM MS) in triplicate. Reference Stable heavy isotope analogs are spiked into known drug free OF to determine the sensitivity limit of detection. A standard curve is generated by mixing a known amount of reference heavy isotope analogs with varying amounts of the natural drug, plotting the ratio of the concentration of natural drug to that of the heavy standard isotope analog. The reference heavy isotope analogs are spiked into suspected positive OF sample. The ratio of […] is calculated and fitted to the standard curve to calculate the natural drugs concentration.
The present disclosure provides an exemplary oral fluid sample processing protocol. […]

SMILES: CCCCCc1cc(O)c2c(c1)OC(C)(C)[C@@H]1CCC(C)=C[C@@H]21 [THC, (6aR,10aR)-6,6,9-trimethyl-3-pentyl-6a, 7,8,10a-tetrahydro-6H-benzo[c]chromen-1-ol]
- concentration of THC in saliva: 8.615 ng/mL
